Test results taken from ChEMBL document CHEMBL1201862, “PubChem BioAssay data set” (2004).
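Values below derive from 48-hour exposures of cells grown in 96-well plates, with endpoints linearly interpolated between the two concentrations bracketing the appropriate inhibition level. At the GI50, growth is halved.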 The source made the active and inactive calls. Rule as the data show it: active = GI50 up to about 1.1 µM and inactive = higher.

Columns and labels:
Experiment in all cases: growth of human tumour cells (NCI), 48 h
IGROV-1 = test system: IGROV-1
M19-MEL = test system: M19-MEL
HCC 2998 = test system: HCC 2998
A549 = test system: A549
HOP-92 = test system: HOP-92
SR = test system: SR
SF-268 = test system: SF-268
RXF 393 = test system: RXF 393
HOP-62 = test system: HOP-62
LOX IMVI = test system: LOX IMVI
OVCAR-5 = test system: OVCAR-5
TK-10 = test system: TK-10
A498 = test system: A498
NCI-H226 = test system: NCI-H226
COLO 205 = test system: COLO 205
NCI-H460 = test system: NCI-H460
SNB-75 = test system: SNB-75
CCRF-CEM = test system: CCRF-CEM
T47D = test system: T47D
BT-549 = test system: BT-549

Structure (SMILES) | GI50 (IGROV-1) | GI50 (M19-MEL) | GI50 (HCC 2998) | GI50 (A549) | GI50 (HOP-92) | GI50 (SR) | GI50 (SF-268) | GI50 (RXF 393) | GI50 (HOP-62) | GI50 (LOX IMVI) | GI50 (OVCAR-5) | GI50 (TK-10) | GI50 (A498) | GI50 (NCI-H226) | GI50 (COLO 205) | GI50 (NCI-H460) | GI50 (SNB-75) | GI50 (CCRF-CEM) | GI50 (T47D) | GI50 (BT-549)
Cc1ccc(S(=O)(=O)OC2CS[S+]([O-])CC2OS(=O)(=O)c2ccc(C)cc2)cc1 (stereo not given) | 18 µM (inactive) | 16.6 µM (inactive) | 17.1 µM (inactive) | 19 µM (inactive) | 13 µM (inactive) | 1.83 µM (inactive) | 17 µM (inactive) | 8.22 µM (inactive) | 20.8 µM (inactive) | 12.1 µM (inactive) | 18.2 µM (inactive) | 15.1 µM (inactive) | 16.1 µM (inactive) | 19.4 µM (inactive) | 11.8 µM (inactive) | 22.3 µM (inactive) | 20.6 µM (inactive) |  |  | 
C/C(CC(=O)Nc1ccccc1)=N\NC(N)=S | > 100 µM (inactive) | > 100 µM (inactive) | > 100 µM (inactive) | > 100 µM (inactive) | > 100 µM (inactive) |  | > 100 µM (inactive) | > 100 µM (inactive) | > 100 µM (inactive) | > 100 µM (inactive) | > 100 µM (inactive) | > 100 µM (inactive) |  | > 100 µM (inactive) | > 100 µM (inactive) | > 100 µM (inactive) | > 100 µM (inactive) | > 100 µM (inactive) |  | 
Fc1ccc(C2SCc3nc4ccccc4n32)cc1Cl (stereo not given) | > 10 µM (inactive) | 19.8 µM (inactive) | 16.3 µM (inactive) | 25.8 µM (inactive) | 12 µM (inactive) | 27.2 µM (inactive) | 33.6 µM (inactive) | 19.4 µM (inactive) | 15.5 µM (inactive) | 17.9 µM (inactive) | 15.4 µM (inactive) | 27.8 µM (inactive) | 33.7 µM (inactive) | 23.2 µM (inactive) | 15.3 µM (inactive) | 29.2 µM (inactive) |  | 25.6 µM (inactive) |  | 
CS(=O)(=O)CS(=O)(=O)OCCCl | 252 µM (inactive) | 286 µM (inactive) | 301 µM (inactive) | 220 µM (inactive) | 119 µM (inactive) | 15.8 µM (inactive) | 47.9 µM (inactive) | 163 µM (inactive) | 43.3 µM (inactive) | 37.8 µM (inactive) | 621 µM (inactive) | 465 µM (inactive) | 527 µM (inactive) | 177 µM (inactive) | 276 µM (inactive) | 83.6 µM (inactive) | 46.8 µM (inactive) | 47 µM (inactive) | 218 µM (inactive) | 99.5 µM (inactive)
N#CC(C(=O)C(=O)C(C#N)c1ccc(Br)cc1)c1ccc(Br)cc1 (stereo not given) | 15.6 µM (inactive) | 12.1 µM (inactive) | 12 µM (inactive) | 23.3 µM (inactive) | 13.3 µM (inactive) | 6.37 µM (inactive) | 10.5 µM (inactive) | 4.26 µM (inactive) | 13.2 µM (inactive) | 11 µM (inactive) | 18.2 µM (inactive) | 16.8 µM (inactive) | 15.8 µM (inactive) | 18.1 µM (inactive) | 16.5 µM (inactive) | 16 µM (inactive) | 5.13 µM (inactive) | 4.47 µM (inactive) |  | 
C=C(C(=C)P(=S)(C(C)C)C(C)C)P(=S)(C(C)C)C(C)C | > 100 µM (inactive) | > 100 µM (inactive) | > 100 µM (inactive) | > 100 µM (inactive) | > 100 µM (inactive) | > 100 µM (inactive) | > 100 µM (inactive) | > 100 µM (inactive) | > 100 µM (inactive) | > 100 µM (inactive) | > 100 µM (inactive) | > 100 µM (inactive) | > 100 µM (inactive) | > 100 µM (inactive) | > 100 µM (inactive) | > 100 µM (inactive) | > 100 µM (inactive) | > 100 µM (inactive) |  | 
Nc1nc2c(c(=O)[n-]1)[n+](CCO)cn2C1OC(CO)C(O)C1O (stereo not given) | > 100 µM (inactive) | > 100 µM (inactive) |  | > 100 µM (inactive) | > 100 µM (inactive) | > 100 µM (inactive) | > 100 µM (inactive) | > 100 µM (inactive) | > 100 µM (inactive) | > 100 µM (inactive) | > 100 µM (inactive) | > 100 µM (inactive) | > 100 µM (inactive) | > 100 µM (inactive) | > 100 µM (inactive) | > 100 µM (inactive) | > 100 µM (inactive) | > 100 µM (inactive) |  | 
COc1cc2c(cc1OC)C1Cc3cc(OC)c(OC)cc3N1CC2 (stereo not given) | 52.6 µM (inactive) | 13.3 µM (inactive) | 79.4 µM (inactive) | 26.9 µM (inactive) | 33 µM (inactive) | 35.9 µM (inactive) | 35 µM (inactive) |  | 27.6 µM (inactive) |  | > 100 µM (inactive) | 23 µM (inactive) | 40.5 µM (inactive) | 20.3 µM (inactive) | 20.5 µM (inactive) | 40.2 µM (inactive) | 21.4 µM (inactive) | 43.5 µM (inactive) |  | 
N/N=C(\CCN1CCCC1)CC(c1ccccc1)c1c(O)c2ccccc2oc1=O (stereo not given) | > 100 µM (inactive) | > 100 µM (inactive) | > 100 µM (inactive) | > 100 µM (inactive) | 49 µM (inactive) | > 100 µM (inactive) | > 100 µM (inactive) | > 100 µM (inactive) | > 100 µM (inactive) | > 100 µM (inactive) | > 100 µM (inactive) | > 100 µM (inactive) |  | > 100 µM (inactive) | > 100 µM (inactive) | > 100 µM (inactive) | 45.3 µM (inactive) | > 100 µM (inactive) |  | 
O=C(/C=C/c1ccc(Cl)cc1)c1ccncc1 | 48.2 µM (inactive) | 26.9 µM (inactive) | 40.4 µM (inactive) | 58.5 µM (inactive) | > 100 µM (inactive) | 45.9 µM (inactive) | 85.9 µM (inactive) | 21.4 µM (inactive) | 98.9 µM (inactive) | 27.1 µM (inactive) | > 100 µM (inactive) | 33.4 µM (inactive) | 27 µM (inactive) | > 100 µM (inactive) | > 100 µM (inactive) | 59.7 µM (inactive) | 22.1 µM (inactive) | 43.7 µM (inactive) |  | 
O=C(CC1(O)C(=O)Nc2c(Cl)ccc(Cl)c21)c1ccc(Cl)cc1 (stereo not given) | 23.9 µM (inactive) | 18.4 µM (inactive) | 24.5 µM (inactive) | 45.5 µM (inactive) | 37.8 µM (inactive) |  | 37 µM (inactive) | 21.9 µM (inactive) | 32 µM (inactive) | 18.5 µM (inactive) | 35.2 µM (inactive) | > 100 µM (inactive) | 38.4 µM (inactive) | 38.5 µM (inactive) | 18.6 µM (inactive) | 23.4 µM (inactive) | 26.6 µM (inactive) |  |  | 
O=C(O)c1c2c(cc3c(=O)c4ccccc4[nH]c13)CCCC2 | > 100 µM (inactive) | > 100 µM (inactive) | 46.3 µM (inactive) | > 100 µM (inactive) | 59.7 µM (inactive) | > 100 µM (inactive) | > 100 µM (inactive) | > 100 µM (inactive) | > 100 µM (inactive) | 60.5 µM (inactive) | > 100 µM (inactive) | > 100 µM (inactive) |  | > 100 µM (inactive) | > 100 µM (inactive) | > 100 µM (inactive) | > 100 µM (inactive) | > 100 µM (inactive) |  | 
O=C(N/C(=C\c1ccc(/C=C(\NC(=O)c2ccccc2)c2nc3ccccc3[nH]2)cc1)c1nc2ccccc2[nH]1)c1ccccc1 | > 100 µM (inactive) | > 100 µM (inactive) | > 100 µM (inactive) | > 100 µM (inactive) | > 100 µM (inactive) |  | > 100 µM (inactive) | > 100 µM (inactive) | > 100 µM (inactive) | > 100 µM (inactive) | > 100 µM (inactive) | > 100 µM (inactive) | > 100 µM (inactive) |  | > 100 µM (inactive) | > 100 µM (inactive) | > 100 µM (inactive) | > 100 µM (inactive) |  | 
CC(C)c1ccccc1NC(=O)CCc1n[nH]c(=S)o1 | > 100 µM (inactive) | > 100 µM (inactive) | > 100 µM (inactive) | 99.8 µM (inactive) | > 100 µM (inactive) | > 100 µM (inactive) | > 100 µM (inactive) | > 100 µM (inactive) | > 100 µM (inactive) | > 100 µM (inactive) | > 100 µM (inactive) | > 100 µM (inactive) | > 100 µM (inactive) | > 100 µM (inactive) | 27.2 µM (inactive) | > 49.9 µM (inactive) | > 66.4 µM (inactive) | > 64.1 µM (inactive) |  | 
COC(=O)C1=C(O)c2cc(-c3ccccc3)c(-c3ccccc3)c(C#N)c2NC(=O)C1 | 0.522 µM (active) | 14.5 µM (inactive) | 34.9 µM (inactive) | 3.5 µM (inactive) |  | 2.96 µM (inactive) |  | 1.7 µM (inactive) | 20.4 µM (inactive) |  |  |  | 33.9 µM (inactive) |  | 6.08 µM (inactive) | 3.7 µM (inactive) | 16.8 µM (inactive) | 7.14 µM (inactive) |  | 
O=S(=O)(N/N=C/c1ccc(Cl)cc1Cl)c1ccccc1 | > 100 µM (inactive) | > 100 µM (inactive) | > 100 µM (inactive) | > 100 µM (inactive) | 34.8 µM (inactive) | 57 µM (inactive) | 63.1 µM (inactive) | 77.1 µM (inactive) | > 100 µM (inactive) | 97.9 µM (inactive) | > 100 µM (inactive) | > 100 µM (inactive) | > 100 µM (inactive) | 99.3 µM (inactive) | 62.4 µM (inactive) |  | 83 µM (inactive) | 38.5 µM (inactive) |  | 
